Data as given in patent EP0133934A2, “Pharmacologically active 1,3,4-thiadiazol-(3,2-a)-thieno-(2,3-d)-pyrimidin-5-(H)one derivatives” (NIKEPHARMA S.r.l., priority 1983, dated 1985).

Experiments:
acetic acid peritonitis = test: Anti-exudative activity: acetic acid peritonitis in the rat; type: in vivo; settings: for EXUDATE VOLUME ml ± E.S.: controls 2.58 ± 0.18
Method: The test was carried out according to the procedure described by Arrigoni-Martelli (Boll.Chim. Far. 107, 29, 1968). This method is based upon the evaluation of the anti-exudative effect of a drug at the peritoneal level, following a intraperitoneal injection of 10 ml/kg of a 0.5% acetic acid solution.
The compounds under test were administered oral ly one hour before the inflammatory agent; 30 minutes after the treatment the animals were killed and the fluid from the peritoneal cavity was drawn and measured.
The test compounds were administered by oral route 1 hour before intraperitoneal injection of acetic acid (10 ml/kg of a 0.5% solution).
The anti-exudative activity was determined on the basis of the peritoneal exudate of the treated animals, in comparison with the controls.

[1] = test system: Writhing test induced by phenyl-benzoquinone; test: Phenylbenzoquinone writhing test in the rat; type: in vivo
Method: (§1) The activity tests were carried out on male Spra gue-Dawley rats weighing 200+20 g and on male Swiss mice weighing 26+3 g.
(§2) The test compounds were administered orally by means of gastroesophageal tube, in the form of a suspen sion in a 10 ml/kg mucilage of 5% gum arabic; and intraperitoneally in the form of an aqueous suspen sion added with a few drops of Tween 80, in the con stant volume of 10 ml/kg.

carrageenin oedema = test: Antiinflammatory activity: carrageenin oedema in the rat; type: in vivo; settings: po, 4 h, os, 100 mg/kg, one hour before carrageenin, read-out: OEDEMA INHIBITION % at the fourth hour
Method: as §1, §2
The compounds under test and the control ones were administered orally one hour before the injection of 0.1 ml of 1% carrageenin in the right paw of the animals.
The volume of the paw was measured by means of a plethysmograph immediately before the injection and 2, 4 and 6 hours after.
The results were expressed as percentage inhibi tion of the oedema in the treated animals in comparison with the control animals, at the time of the maximum oedema development (fourth hour after the carrageenin injection).

[2] = test system: phenylbenzoquinone writhing test; test: Phenylbenzoquinone writhing test in the mouse (ED50 and duration of effect); type: in vivo; settings: for % INHI-BITION / N° OF WRITHES IN 10' ml ± E.S.: Table 6, oral, one hour before the test; for N° OF WRITHES IN 10' ml ± E.S.: controls 52.4 ± 1.69; for % INHIBITION / Nº OF WRITHES IN 10' ml ± E.S.: Table 7, oral 1 mg/kg; for Nº OF WRITHES IN 10' ml ± E.S.: controls 53.2 ± 1.26
Method: The analgesic effect was determined by the number of writhes of the abdomen recorded during 10 minutes (from 5 to 15 minutes after the phenylbenzo quinone injection).

gastric ulceration = type: in vivo, rat; settings: os, 400 mg/kg
Method: To rats fasted for 18 hours, with water ad libitum, were administered the compounds under test at "0" time and after 2 hours. Control rats were treated with established anti-inflammatory agents.
6 Hours after the beginning of the test, the animals were killed by ether inhalation.
Gastric ulceration was assessed on the ground of values ranging from 0 to 4: • 0 = no ulceration; • 1 = slight iperhaemia and/or a few ulcers; • 2 = severe iperhaemia and many punctiform ulcers; • 3 = severe submucosal hemorrage, one large ulcer and many punctiform ulcers; • 4 severe submucosal hemorrage and many large ulcers.
The ulcerogenic index was measured by the following formula (Lwoff. J.M., J. Pharmacol., 2, 81, 1971): [formula]

Carrageenin pleuritis = Carrageenin pleuritis in the rat; type: in vivo; settings: for EXUDATE VOLUME: 30 min. before carrageenin and 6 hours after, exudate at 18 hours, controls 2.76 ± 0.38
Method: Compound HA-34 was tested for the protective activity against the exudative pleuritis reaction induced by carrageenin. HA-34 was administered 30 min. before the injection of carrageenin, and 6 hours after it. The experiment was carried out on male Spra- gue-Dawley rats, anestethized with ethyl urethane, which were subjected, in their right pleural cavity, to injection of 1.5 ml of air and then 0.1 ml of a 1% carrageenin solution, in sterile normal saline, according to the procedure by Van Armann et al. (J. Pharmac. Exp. Ther., 150, 328, 1965). Indometha cin and Piroxicam were employed as the control drugs, under the same conditions. 18 Hours after the intrapleuric carrageenin injec tion, the animals were killed by means of ether inhalation, and the pleuric exudate was collected and measured.

[3] = 30 min. before phenylbenzoquinone

## CSc1nn2c(=O)c3c4c(sc3nc2s1)CCCC4 [HA 34, 2-Methyl-mercapto-6,7,8,9-tetrahydro-5H[1]-benao-thieno[2,3-d]-1,3,4-thiadiazole[3,2-a]pyrimidin-5[H]-one]
Acetic acid peritonitis; Rattus norvegicus, po, Table 4, os, 10 mg/kg
  inhibition in vivo at 10 mg/kg: 64%
Acetic acid peritonitis; Rattus norvegicus, po, Table 8, oral, 0.1 mg/kg
  inhibition in vivo at 0.1 mg/kg: 26.7%
Acetic acid peritonitis; Rattus norvegicus, po, Table 8, oral, 0.5 mg/kg
  inhibition in vivo at 0.5 mg/kg: 48%
Acetic acid peritonitis; Rattus norvegicus, po, Table 8, oral, 1 mg/kg
  inhibition in vivo at 1 mg/kg: 53.2%
Acetic acid peritonitis; Rattus norvegicus, po, Table 8, oral, 10 mg/kg
  inhibition in vivo at 10 mg/kg: 78.8%
Acetic acid peritonitis; Rattus norvegicus, po, Table 8, oral, 20 mg/kg
  inhibition in vivo at 20 mg/kg: 94.2%
Acetic acid peritonitis; Rattus norvegicus, oral administration 1 hour before i.p. acetic acid
  ED50: 0.7 mg/kg
Acetic acid peritonitis; Table 4, os, 10 mg/kg, controls 2.91 ± 0.12
  PERITONEAL EXUDATE ml ± E.S.: 0.75 ± 0.11 mL
Acetic acid peritonitis; Table 8, oral, 0.1 mg/kg, 1 hour before acetic acid
  EXUDATE VOLUME ml ± E.S.: 1.89 ± 0.14 mL
Acetic acid peritonitis; Table 8, oral, 0.5 mg/kg
  EXUDATE VOLUME ml ± E.S.: 1.34 ± 0.07 mL
Acetic acid peritonitis; Table 8, oral, 1 mg/kg
  EXUDATE VOLUME ml ± E.S.: 1.20 ± 0.10 mL
Acetic acid peritonitis; Table 8, oral, 10 mg/kg
  EXUDATE VOLUME ml ± E.S.: 0.54 ± 0.08 mL
Acetic acid peritonitis; Table 8, oral, 20 mg/kg
  EXUDATE VOLUME ml ± E.S.: 0.15 ± 0.07 mL
[1]; Rattus norvegicus, po, 10 min, os, 0.5 mg/kg, read-out: % INHIBI-TION
  inhibition in vivo at 0.5 mg/kg: 24%
[1]; Rattus norvegicus, po, 10 min, os, 5 mg/kg, read-out: % INHIBI-TION
  inhibition in vivo at 5 mg/kg: 81%
[1]; oral doses of 5 and 0.5 mg/kg, result in words
  analgesic action: the more active of the tested compounds
Carrageenin oedema
  inhibition in vivo at 100 mg/kg: 48.8 ± 0.91%
[2]; Mus musculus, 1 h, oral administration one hour before the test, read-out: ED50
  ED50: 1 mg/kg
[2]; 0.1 mg/kg
  % INHI-BITION: 15.8%
  N° OF WRITHES IN 10' ml ± E.S.: 44.1 ± 1.12
[2]; 0.5 mg/kg
  % INHI-BITION: 31.3%
  N° OF WRITHES IN 10' ml ± E.S.: 36.0 ± 1.33
[2]; 1 mg/kg
  % INHI-BITION: 67.2%
  N° OF WRITHES IN 10' ml ± E.S.: 17.2 ± 0.87
[2]; 2 mg/kg
  % INHI-BITION: 73.6%
  N° OF WRITHES IN 10' ml ± E.S.: 13.8 ± 1.12
[2]; 5 mg/kg
  % INHI-BITION: 79.8%
  N° OF WRITHES IN 10' ml ± E.S.: 10.6 ± 1.06
[2]; [3]
  % INHIBITION: 63.9%
  Nº OF WRITHES IN 10' ml ± E.S.: 19.2 ± 1.18
[2]; 1 h before phenylbenzoquinone
  % INHIBITION: 65.4%
  Nº OF WRITHES IN 10' ml ± E.S.: 18.4 ± 1.07
[2]; 3 h before phenylbenzoquinone
  % INHIBITION: 69.9%
  Nº OF WRITHES IN 10' ml ± E.S.: 16.0 ± 1.26
[2]; 4 h before phenylbenzoquinone
  % INHIBITION: 65.4%
  Nº OF WRITHES IN 10' ml ± E.S.: 18.4 ± 1.74
[2]; 6 h before phenylbenzoquinone
  % INHIBITION: 62.0%
  Nº OF WRITHES IN 10' ml ± E.S.: 20.2 ± 1.24
[2]; 8 h before phenylbenzoquinone
  % INHIBITION: 59.4%
  Nº OF WRITHES IN 10' ml ± E.S.: 21.6 ± 1.32
[2]; 24 h before phenylbenzoquinone
  % INHIBITION: 58.3%
  Nº OF WRITHES IN 10' ml ± E.S.: 22.2 ± 1.46
[2]; 32 h before phenylbenzoquinone
  % INHIBITION: 30.6%
  Nº OF WRITHES IN 10' ml ± E.S.: 36.9 ± 2.01
[2]; oral 1 mg/kg, result in words
  duration of action: longer lasting than that of Indomethacin and substantially comparable with that of Piroxicam
Gastric ulceration
  ULCERA-TION INDEX: 0
Gastric ulceration; at 0 time and after 2 hours, killed at 6 hours
  % ANIMALS WITH ULCERS: 0%
Gastric ulceration; scale 0 to 4
  ULCERA-TION DEGREE: 0
Carrageenin pleuritis; 5 mg/kg
  % INHIBITION: 34.8%
  EXUDATE VOLUME: 1.80 ± 0.29
Carrageenin pleuritis; 10 mg/kg
  % INHIBITION: 63.0%
  EXUDATE VOLUME: 1.02 ± 0.26
Carrageenin pleuritis; at the tested doses, result in words
  inhibiting action on the pleuric exudative reaction: significant inhibiting action
